The values below are quoted from earlier work in patent US10202400B2, “Cortistatin analogues and syntheses thereof” (President and Fellows of Harvard College, priority 2008, dated 2019).

Series [1] has as its system human nasopharynx carcinoma (KB) cells.
Series [2] relates to human umbilical vein endothelial cells (HUVECs).
Series [3] concerns several human and murine cancer cell lines and one normal human dermal fibroblast cell line (KB3-1, Neuro2A, K562, NHDF).

In brackets after ≈: the same amount, converted by molar mass.

As for `CN[C@@H](C)[C@H]1CC[C@H]2[C@@H]3CC[C@@H]4C(=CC3=CC[C@]12C)CC[C@H](NC)C4(C)C` [buxenine G], the ED50 in series [1] is 0.4 µg/mL (≈ 1.08 µM).

In the case of `CN(C)[C@H]1C[C@@]23CC[C@@]4(O2)C(=CC[C@]2(C)[C@@H](c5ccc6ccncc6c5)CC[C@H]24)C=C3[C@@H](O)[C@@H]1O` [Cortistatin A, cortistatin A], in the series on HUVECs, the “tubular formation in HUVECs” value is recorded as “inhibits tubular formation”. The GI50 (usually the concentration giving 50% growth inhibition) was 0.00018 µM in series [2] and 6 to 7 µM in series [3]. Besides, the HUVEC cellular migration result in the series with HUVEC is “inhibits HUVEC cellular migration”.
